# Data: BindingDB's records for doi:10.1016/j.bmcl.2010.11.060 (Msd, 2010)
# Test: Inhibition of MCP1-mediated human THP cell migration
row,IC50 [µM],SMILES
1,2.63,C[C@@H](N)[C@H]1CC[C@H](C(=O)Nc2ccncc2)CC1 [4-[(1R)-1-aminoethyl]-N-(pyridin-4-yl)cyclohexane-1-carboxamide]
2,6.92,O=c1[nH]ccc2c(S(=O)(=O)N3CCCNCC3)cccc12
3,6.92,O=S(=O)(c1cccc2cnccc12)N1CCCNCC1 [AT877]

row,SMILES,IC50 [µM]
1,Nc1nccc2cc(CNCCc3ccccc3)ccc12,> 31.6
